In the NIST ThermoML archive (doi:10.1021/je500804j):

Test: mn = molality of the nth substance listed, in mol/kg
Details: 101 kPa, Liquid, Alternating current cell with electrodes

CCCCCCCC[N+](C)(C)CCCCCC[N+](C)(C)CCCCCCCC.[Br-].[Br-] + O
Details	electrical conductivity [S/m]
288.15 K, m1 = 0.00378	0.05571
288.15 K, m1 = 0.00747	0.1028
288.15 K, m1 = 0.01106	0.1443
288.15 K, m1 = 0.01457	0.1827
288.15 K, m1 = 0.01799	0.2183
288.15 K, m1 = 0.02133	0.252
288.15 K, m1 = 0.02458	0.2838
288.15 K, m1 = 0.02776	0.3124
288.15 K, m1 = 0.03087	0.3407
288.15 K, m1 = 0.0339	0.3668
288.15 K, m1 = 0.03687	0.3917
288.15 K, m1 = 0.03977	0.4158
288.15 K, m1 = 0.0426	0.4383
288.15 K, m1 = 0.04537	0.4604
288.15 K, m1 = 0.04808	0.4812
288.15 K, m1 = 0.05073	0.5011
288.15 K, m1 = 0.05333	0.521
288.15 K, m1 = 0.05587	0.5391
288.15 K, m1 = 0.05835	0.555
288.15 K, m1 = 0.06079	0.5717
288.15 K, m1 = 0.06318	0.5855
288.15 K, m1 = 0.06551	0.6042
288.15 K, m1 = 0.0678	0.6203
288.15 K, m1 = 0.07005	0.6375
288.15 K, m1 = 0.07225	0.653
288.15 K, m1 = 0.07441	0.6677
288.15 K, m1 = 0.07652	0.6826
288.15 K, m1 = 0.0786	0.6955
288.15 K, m1 = 0.08064	0.7092
288.15 K, m1 = 0.08264	0.7199
288.15 K, m1 = 0.0846	0.7323
288.15 K, m1 = 0.08652	0.7423
288.15 K, m1 = 0.08841	0.7524
288.15 K, m1 = 0.09027	0.7618
288.15 K, m1 = 0.09209	0.7705
288.15 K, m1 = 0.09388	0.7794
288.15 K, m1 = 0.09564	0.7883
288.15 K, m1 = 0.09737	0.7958
288.15 K, m1 = 0.09907	0.8039
288.15 K, m1 = 0.1007	0.812
288.15 K, m1 = 0.1024	0.817
288.15 K, m1 = 0.104	0.8214
288.15 K, m1 = 0.1056	0.8271
288.15 K, m1 = 0.1071	0.8323
288.15 K, m1 = 0.1087	0.836
288.15 K, m1 = 0.1102	0.8402
288.15 K, m1 = 0.1117	0.8452
288.15 K, m1 = 0.1131	0.8492
288.15 K, m1 = 0.1146	0.8528
288.15 K, m1 = 0.116	0.8565
293.15 K, m1 = 0.00416	0.07018
293.15 K, m1 = 0.00821	0.09599
293.15 K, m1 = 0.01215	0.154
293.15 K, m1 = 0.01598	0.2062
293.15 K, m1 = 0.01972	0.2543
293.15 K, m1 = 0.02336	0.2987
293.15 K, m1 = 0.02691	0.3399
293.15 K, m1 = 0.03037	0.3785
293.15 K, m1 = 0.03374	0.415
293.15 K, m1 = 0.03704	0.4499
293.15 K, m1 = 0.04025	0.4818
293.15 K, m1 = 0.04339	0.5127
293.15 K, m1 = 0.04645	0.5415
293.15 K, m1 = 0.04944	0.5687
293.15 K, m1 = 0.05237	0.5953
293.15 K, m1 = 0.05523	0.6199
293.15 K, m1 = 0.05802	0.6436
293.15 K, m1 = 0.06075	0.6658
293.15 K, m1 = 0.06342	0.6867
293.15 K, m1 = 0.06604	0.707
293.15 K, m1 = 0.06859	0.7264
293.15 K, m1 = 0.0711	0.7446
293.15 K, m1 = 0.07355	0.762
293.15 K, m1 = 0.07595	0.7782
293.15 K, m1 = 0.0783	0.7934
293.15 K, m1 = 0.0806	0.8076
293.15 K, m1 = 0.08285	0.8213
293.15 K, m1 = 0.08507	0.8335
293.15 K, m1 = 0.08723	0.8458
293.15 K, m1 = 0.08936	0.8569
293.15 K, m1 = 0.09144	0.8677
293.15 K, m1 = 0.09348	0.8777
293.15 K, m1 = 0.09549	0.8873
293.15 K, m1 = 0.09745	0.8958
293.15 K, m1 = 0.09938	0.9045
293.15 K, m1 = 0.1013	0.9127
293.15 K, m1 = 0.1031	0.9206
293.15 K, m1 = 0.105	0.9279
293.15 K, m1 = 0.1068	0.9349
293.15 K, m1 = 0.1085	0.9413
293.15 K, m1 = 0.1103	0.9468
293.15 K, m1 = 0.1119	0.9533
293.15 K, m1 = 0.1136	0.9594
293.15 K, m1 = 0.1153	0.9653
293.15 K, m1 = 0.1169	0.9709
293.15 K, m1 = 0.1185	0.9766
293.15 K, m1 = 0.12	0.9819
293.15 K, m1 = 0.1216	0.9868
293.15 K, m1 = 0.1231	0.9919
